Target: T1, YgbP/IspD (Escherichia coli, UniProt Q46893)
T1 sequence (Q46893 2-236): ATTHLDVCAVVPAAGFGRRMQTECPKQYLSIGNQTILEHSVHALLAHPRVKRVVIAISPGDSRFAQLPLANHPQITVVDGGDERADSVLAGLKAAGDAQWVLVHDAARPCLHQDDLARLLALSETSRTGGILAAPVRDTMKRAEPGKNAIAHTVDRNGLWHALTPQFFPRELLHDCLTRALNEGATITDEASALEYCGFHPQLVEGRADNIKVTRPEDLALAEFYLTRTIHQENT
Assay: steady-state inhibition kinetics, malachite green phosphate assay coupled to inorganic pyrophosphatase
Format: biochemical

## [N-]=[N+]=NC[C@](O)(CO)[C@H](O)COP(=O)(O)O [compound 11, MEPN3]
  Ki: 21 ± 3 µM

Source: PMC6297244, “Synthesis and Kinetic evaluation of an azido analogue of methylerythritol phosphate: a Novel Inhibitor of E. coli YgbP/IspD” (Scientific Reports, 2018)
